Literature values in US20190105332A1, “METHODS OF TREATING PROSTATE CANCER” (Janssen Oncology, Inc., priority 2017, published 2019).
Where two headings read alike, the source gives them in different places.

Key:
[1] = not given; remark: listed apart in the source
[2] = not given; remark: listed apart in the source
CYP1A2 = biological target: T1, CYP1A2 (Homo sapiens, UniProt P05177); conditions: abiraterone acetate 1,000 mg daily plus prednisone 5 mg twice daily; single 100 mg theophylline
T1 sequence (P05177 1-516): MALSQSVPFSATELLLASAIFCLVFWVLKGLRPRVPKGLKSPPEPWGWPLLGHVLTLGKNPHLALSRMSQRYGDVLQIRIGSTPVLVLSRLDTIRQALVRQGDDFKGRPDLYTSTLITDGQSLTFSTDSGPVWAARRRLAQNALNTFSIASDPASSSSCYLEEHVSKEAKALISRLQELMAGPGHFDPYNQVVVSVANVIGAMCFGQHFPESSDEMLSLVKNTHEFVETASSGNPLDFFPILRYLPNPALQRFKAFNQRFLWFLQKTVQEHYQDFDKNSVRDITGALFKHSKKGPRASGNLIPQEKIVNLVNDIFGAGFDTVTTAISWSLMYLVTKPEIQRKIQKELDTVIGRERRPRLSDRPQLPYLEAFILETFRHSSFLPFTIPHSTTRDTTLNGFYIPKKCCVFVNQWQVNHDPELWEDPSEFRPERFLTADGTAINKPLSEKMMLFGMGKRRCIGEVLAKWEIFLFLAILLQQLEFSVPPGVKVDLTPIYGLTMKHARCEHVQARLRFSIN

[3] = 6-month study
P-glycoprotein (P-gp) = P-glycoprotein (P-gp) (Homo sapiens, UniProt P08183); conditions: in vitro
Chain of P-glycoprotein (P-gp) (P08183 whole entry): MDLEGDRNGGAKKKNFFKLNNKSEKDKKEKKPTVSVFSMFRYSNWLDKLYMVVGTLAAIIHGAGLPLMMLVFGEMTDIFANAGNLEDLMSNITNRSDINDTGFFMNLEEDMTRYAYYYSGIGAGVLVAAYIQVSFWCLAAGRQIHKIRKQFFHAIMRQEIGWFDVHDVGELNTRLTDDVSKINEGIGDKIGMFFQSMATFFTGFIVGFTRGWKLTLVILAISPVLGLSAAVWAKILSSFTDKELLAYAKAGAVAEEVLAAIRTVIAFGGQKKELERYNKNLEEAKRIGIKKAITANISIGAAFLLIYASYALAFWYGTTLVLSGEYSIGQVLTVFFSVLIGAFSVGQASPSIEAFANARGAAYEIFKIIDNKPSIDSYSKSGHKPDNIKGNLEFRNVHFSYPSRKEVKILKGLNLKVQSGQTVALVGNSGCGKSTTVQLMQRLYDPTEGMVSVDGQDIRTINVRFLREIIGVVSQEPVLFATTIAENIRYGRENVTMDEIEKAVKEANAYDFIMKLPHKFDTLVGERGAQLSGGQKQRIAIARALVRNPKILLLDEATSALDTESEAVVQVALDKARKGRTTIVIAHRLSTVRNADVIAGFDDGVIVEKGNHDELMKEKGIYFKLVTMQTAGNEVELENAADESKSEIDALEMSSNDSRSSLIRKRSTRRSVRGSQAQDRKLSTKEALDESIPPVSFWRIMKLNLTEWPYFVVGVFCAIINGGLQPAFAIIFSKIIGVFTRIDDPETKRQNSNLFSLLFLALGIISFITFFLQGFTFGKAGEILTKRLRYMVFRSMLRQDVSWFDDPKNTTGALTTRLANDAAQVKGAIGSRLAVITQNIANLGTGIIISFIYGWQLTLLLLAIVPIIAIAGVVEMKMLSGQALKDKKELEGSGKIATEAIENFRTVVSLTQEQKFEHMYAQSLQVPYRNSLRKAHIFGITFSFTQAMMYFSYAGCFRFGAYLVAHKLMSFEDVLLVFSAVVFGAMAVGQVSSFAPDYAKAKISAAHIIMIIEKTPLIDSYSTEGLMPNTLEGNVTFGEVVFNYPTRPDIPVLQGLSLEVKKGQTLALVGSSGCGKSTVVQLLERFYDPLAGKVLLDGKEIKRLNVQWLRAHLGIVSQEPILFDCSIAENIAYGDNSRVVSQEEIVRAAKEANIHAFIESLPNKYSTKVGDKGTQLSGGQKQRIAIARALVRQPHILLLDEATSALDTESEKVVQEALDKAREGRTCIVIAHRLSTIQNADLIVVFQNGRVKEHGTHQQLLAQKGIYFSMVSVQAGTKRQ

[4] = not given; remark: listed apart in the source
CYP2C8 = biological target: T2, CYP2C8 (Homo sapiens, UniProt P10632); set-up: from tissue; host or cells: in vivo, healthy human subjects (endogenous enzyme); conditions: healthy subjects; single dose of 1,000 mg abiraterone acetate
T2 sequence (P10632 1-490): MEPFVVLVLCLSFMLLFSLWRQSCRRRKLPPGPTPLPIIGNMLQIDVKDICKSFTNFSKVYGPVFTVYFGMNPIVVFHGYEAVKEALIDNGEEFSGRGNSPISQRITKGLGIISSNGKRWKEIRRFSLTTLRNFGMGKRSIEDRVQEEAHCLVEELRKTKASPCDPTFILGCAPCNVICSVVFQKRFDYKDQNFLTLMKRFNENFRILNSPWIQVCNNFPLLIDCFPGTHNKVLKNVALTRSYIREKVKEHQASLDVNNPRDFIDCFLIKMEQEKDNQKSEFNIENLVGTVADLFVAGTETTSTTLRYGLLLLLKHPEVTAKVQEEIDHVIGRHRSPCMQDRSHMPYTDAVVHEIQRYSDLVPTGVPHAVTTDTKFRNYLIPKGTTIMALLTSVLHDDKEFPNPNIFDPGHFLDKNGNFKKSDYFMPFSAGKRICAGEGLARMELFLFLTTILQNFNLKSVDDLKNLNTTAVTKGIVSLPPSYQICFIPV

[5] = not given; remark: listed apart in the source
[6] = not given; remark: listed apart in the source
[7] = test system: primary human lymphocytes
[8] = rat micronucleus assay
[9] = not given; remark: listed apart in the source
CYP2D6 = biological target: T3, CYP2D6 (Homo sapiens, UniProt P10635)
T3 construct: from tissue; host or cells: in vivo, trial participants (endogenous hepatic enzyme)
T3 sequence (P10635 whole entry): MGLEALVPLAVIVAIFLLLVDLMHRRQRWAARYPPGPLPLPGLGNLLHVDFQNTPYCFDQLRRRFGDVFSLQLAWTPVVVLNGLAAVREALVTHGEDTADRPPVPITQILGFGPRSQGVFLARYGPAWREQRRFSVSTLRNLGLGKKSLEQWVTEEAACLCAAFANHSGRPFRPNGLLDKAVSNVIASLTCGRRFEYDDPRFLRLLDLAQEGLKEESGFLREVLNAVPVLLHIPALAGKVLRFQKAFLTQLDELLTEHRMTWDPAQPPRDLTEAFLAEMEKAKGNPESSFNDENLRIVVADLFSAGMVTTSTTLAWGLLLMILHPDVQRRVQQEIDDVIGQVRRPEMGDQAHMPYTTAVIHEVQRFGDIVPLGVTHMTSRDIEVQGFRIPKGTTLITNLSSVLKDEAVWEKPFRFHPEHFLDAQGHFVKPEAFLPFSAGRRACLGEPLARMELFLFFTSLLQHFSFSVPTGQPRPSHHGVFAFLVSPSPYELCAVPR

[10] = not given; remark: listed apart in the source
[11] = oral, 2 weeks until day 7 of pregnancy
[12] = abiraterone acetate 1,000 mg daily and prednisone 5 mg twice daily

Q: Which “dose with pre-implantation loss” value [11] does the source give for `CC(=O)O[C@H]1CC[C@@]2(C)C(=CC[C@@H]3[C@@H]2CC[C@]2(C)C(c4cccnc4)=CC[C@@H]32)C1` [abiraterone acetate, (3β)-17-(3-pyridinyl) androsta-5,16-dien-3-yl acetate] here?
A: 300 mg/kg/day

Q: What about the “doses with increased incidence of irregular or extended estrous cycles” value [11] of the same compound?
A: ≥ 30 mg/kg/day

Q: And the “mating, fertility, and litter parameters” value (rat, in vivo)?
A: no differences

Q: What about the “time after last administration at which effects on female rats were reversible” value (rat, in vivo) of the same compound?
A: 4 weeks

Q: What about the “exposure at which a reduction in circulating testosterone levels occurred” value ([1]; 13- and 39-week studies) of the same compound?
A: approximately one half the human clinical exposure

Q: What about the cataracts ([1]; 39-week, daily oral, 2 times greater than the clinical exposure based on AUC) of the same compound?
A: no cataracts were observed

Q: What about the “doses with atrophy, aspermia/hypospermia, and hyperplasia in the reproductive system” value ([1]; 39-weeks) of the same compound?
A: ≥ 250 mg/kg/day

Q: And the “30 mg/kg/day in rats relative to the recommended dose of 1,000 mg/day” value ([2]; based on body surface area)?
A: approximately 0.3 times

Q: What about the “doses with reduced reproductive organ weights, sperm counts, sperm motility, altered sperm morphology and decreased fertility” value ([2]; dosed orally for 4 weeks) of the same compound?
A: ≥ 30 mg/kg/day

Q: What about the “time after last administration at which effects on male rats were reversible” value ([2]; rat, in vivo) of the same compound?
A: 16 weeks

Q: What about the “systemic exposure of theophylline (CYP1A2 substrate)” value (CYP1A2) of the same compound?
A: no increase

Q: And the carcinogenicity [3]?
A: not carcinogenic

Q: And the “inhibition of P-gp” value (P-glycoprotein (P-gp))?
A: inhibitor

Q: And the “substrate of P-glycoprotein (P-gp)” value (P-glycoprotein (P-gp); clinically relevant concentrations)?
A: not substrates

Q: And the “octanol-water partition coefficient (Log P)” value [4]?
A: 5.12

Q: What about the “pKa of the aromatic nitrogen” value [4] of the same compound?
A: 5.19

Q: What about the solubility in water [4] of the same compound?
A: practically insoluble

Q: What about the “increase in AUC of pioglitazone (CYP2C8 substrate)” value (CYP2C8) of the same compound?
A: 46%

Q: And the “exposure at which a reduction in circulating testosterone levels occurred” value ([5]; 13- and 26-week studies)?
A: approximately one half the human clinical exposure

Q: What about the “doses with dose-dependent increase in cataracts” value ([5]; daily oral, 26 weeks, similar to the human clinical exposure based on AUC) of the same compound?
A: ≥ 50 mg/kg/day

Q: And the “doses with atrophy, aspermia/hypospermia, and hyperplasia in the reproductive system” value ([5]; male rats, 13- and 26-weeks)?
A: ≥ 50 mg/kg/day

Q: And the conversion to abiraterone ([6]; likely through esterase activity)?
A: not CYP mediated

Q: What about the “compound present in feces, share of the administered dose” value ([6]; oral 14C-abiraterone acetate) of the same compound?
A: approximately 55%

Q: What about the “radioactive dose recovered in feces” value ([6]; oral administration) of the same compound?
A: approximately 88%

Q: And the “radioactive dose recovered in urine” value ([6]; oral administration)?
A: approximately 5%

Q: And the clastogenicity in vitro [7]?
A: not mutagenic in an in vitro microbial mutagenesis (Ames) assay or clastogenic

Q: And the clastogenicity in vivo [8]?
A: not mutagenic in an in vitro microbial mutagenesis (Ames) assay or clastogenic

Q: What about the “carcinogenicity in female rats” value ([9]; exposure levels up to 0.8 times the human clinical exposure based on AUC) of the same compound?
A: not carcinogenic

Q: And the “carcinogenicity in male rats” value ([9]; oral 5, 15, and 50 mg/kg/day)?
A: increased the combined incidence of interstitial, cell adenomas and carcinomas in the testes at all dose levels tested

Q: And the “increase in AUC of dextromethorphan (CYP2D6 substrate)” value (CYP2D6; [12])?
A: 2.9 fold

Q: What about the “increase in Cmax of dextromethorphan (CYP2D6 substrate)” value (CYP2D6; [12]) of the same compound?
A: 2.8 fold

Q: And the “increase in AUC for dextrorphan” value (CYP2D6; abiraterone acetate 1,000 mg daily plus prednisone 5 mg twice daily)?
A: approximately 1.3 fold

Q: What about the “systemic exposure (AUC) relative to the AUC in patients” value ([10]; 100 mg/kg/day) of the same compound?
A: ~0.3 times

Q: And the “dose with decreased fetal body weight” value ([10]; oral, gestational days 6-17)?
A: 100 mg/kg/day

Q: And the “doses that caused maternal toxicity” value ([10]; oral, gestational days 6-17)?
A: ≥ 10 mg/kg/day

Q: And the “doses with decreased fetal ano-genital distance” value ([10]; oral, gestational days 6-17)?
A: ≥ 30 mg/kg/day

Q: What about the “doses with embryo-fetal lethality, fetal developmental delay and urogenital effects” value ([10]; rat, in vivo, po) of the same compound?
A: ≥ 10 mg/kg/day
